The values below come from article PMC7926623 (Marine Drugs, 2021).

The target in this experiment is rat α6/α3β2β3 nAChR (Rattus norvegicus, UniProt P04757+P12390+P43143). The class given is cell-based.
rat α6/α3β2β3 nAChR, sequence (P04757 whole entry, looked up): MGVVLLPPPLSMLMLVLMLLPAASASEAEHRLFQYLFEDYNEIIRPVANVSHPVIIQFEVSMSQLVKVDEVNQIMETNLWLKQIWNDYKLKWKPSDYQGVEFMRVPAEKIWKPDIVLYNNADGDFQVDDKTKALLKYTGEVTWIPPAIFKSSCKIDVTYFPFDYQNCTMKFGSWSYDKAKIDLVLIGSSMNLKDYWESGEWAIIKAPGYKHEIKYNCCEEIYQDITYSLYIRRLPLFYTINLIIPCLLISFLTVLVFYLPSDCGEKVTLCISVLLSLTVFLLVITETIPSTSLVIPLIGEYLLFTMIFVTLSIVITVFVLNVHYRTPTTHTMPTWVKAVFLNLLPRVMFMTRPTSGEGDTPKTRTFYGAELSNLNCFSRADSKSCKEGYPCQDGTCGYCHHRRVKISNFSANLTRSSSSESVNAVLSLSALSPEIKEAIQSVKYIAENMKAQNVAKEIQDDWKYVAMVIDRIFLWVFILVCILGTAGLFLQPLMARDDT
rat α6/α3β2β3 nAChR, sequence (P12390 whole entry, looked up): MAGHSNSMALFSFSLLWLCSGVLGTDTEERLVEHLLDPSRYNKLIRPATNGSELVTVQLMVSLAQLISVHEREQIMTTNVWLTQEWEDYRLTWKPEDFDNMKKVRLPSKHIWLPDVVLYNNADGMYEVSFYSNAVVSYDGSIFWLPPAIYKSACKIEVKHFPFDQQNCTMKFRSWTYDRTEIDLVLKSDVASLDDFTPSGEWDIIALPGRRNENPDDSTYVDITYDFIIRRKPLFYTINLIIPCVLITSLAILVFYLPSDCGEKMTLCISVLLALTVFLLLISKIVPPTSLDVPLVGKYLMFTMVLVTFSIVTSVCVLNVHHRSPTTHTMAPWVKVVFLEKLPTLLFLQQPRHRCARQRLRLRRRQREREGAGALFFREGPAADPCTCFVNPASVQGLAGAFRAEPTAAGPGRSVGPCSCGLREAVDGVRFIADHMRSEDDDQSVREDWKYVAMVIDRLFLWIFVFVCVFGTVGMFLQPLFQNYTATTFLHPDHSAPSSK
rat α6/α3β2β3 nAChR, sequence (P43143 whole entry, looked up): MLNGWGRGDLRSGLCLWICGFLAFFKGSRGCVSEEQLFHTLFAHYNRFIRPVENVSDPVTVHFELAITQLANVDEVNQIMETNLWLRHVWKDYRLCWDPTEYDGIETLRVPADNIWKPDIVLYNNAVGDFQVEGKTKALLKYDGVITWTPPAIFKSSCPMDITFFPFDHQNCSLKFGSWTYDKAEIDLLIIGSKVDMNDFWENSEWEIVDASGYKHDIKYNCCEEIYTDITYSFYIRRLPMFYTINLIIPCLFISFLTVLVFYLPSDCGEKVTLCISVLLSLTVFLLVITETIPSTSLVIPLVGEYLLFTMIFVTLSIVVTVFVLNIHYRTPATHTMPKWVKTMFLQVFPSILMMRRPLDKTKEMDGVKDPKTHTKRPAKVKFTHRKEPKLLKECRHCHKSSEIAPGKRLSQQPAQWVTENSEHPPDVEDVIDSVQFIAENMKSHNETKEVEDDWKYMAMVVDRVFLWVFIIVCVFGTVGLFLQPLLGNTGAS

As for α-Conotoxin TxIB, the “inhibition on α6/α3β2β3 nAChR” value is recorded as “about 88%”.
